Data taken from patent publication US9095631B2, “Tetrahydroisoquinoline compounds for use in the diagnosis and treatment of neurodegenerative diseases” (UNIVERSITA DEGLI STUDI DI BARI “ALDO MORO”, priority 2011, dated 2015).

Tests used:
[1] = biological target: T1, P-gp (Homo sapiens, UniProt P08183); assay: Apparent Permeability Determination (Papp) on Caco-2 cells overexpressing P-gp; type: in vitro ADME; conditions: ratio Papp-BA/Papp-AB, 18-20 transported by P-gp, 2-18 modulator, 1-2 not transported
Protocol: 1) Apparent Permeability Determination (Papp)
This assay is carried out on colon adenocarcinoma cell line (Caco-2) overexpressing P-gp, a cell model usually employed for the permeability study. In this experiment Apparent Permeability (Papp) is determined both in basolateral/apical direction (Papp-BA) and in apical/basolateral direction (Papp-AB). The BA/AB ratio allow to discriminate if a ligand is transported by P-gp (BA/AB ratio between 18 and 20), or not (BA/AB ratio between 1 and 2). For BA/AB ratio between 2 and 18 compounds can be classified as modulators (see Polli, J. V et al., 2001, J. Pharmacol. Exp. Ther. 299, 620-628).

[2] = biological target: T2, MRP1 (Homo sapiens, UniProt P33527); assay: Inhibition of the transport of Calcein-AM on MDCK cell lines overexpressing MDR proteins (MRP1); type: cell-based; conditions: for EC50: Calcein-AM transport inhibition, MDCK cells overexpressing MRP1
T2 construct: expressed in transfected cells; host or cells: MDCK
Protocol: (§1) 3) Inhibition of the Transport of Calceina-AM and of Rhodamine-123 on MDCK Cell Lines Overexpressing MDR Proteins.
(§2) In this assay the inhibition of the transport of a BCRP fluorescent substrate, Rhodamina-123, or of a P-gp or MRP1 profluorescent substrate, Calcein-AM, is determined.
(§3) Calcein-AM, entering the cell membrane is […] by citosolic esterase to fluorescent calcein (that is not a P-gp substrate) leading to a fluorescent signal. Therefore, the inhibition of the efflux pump will be directly correlated to the fluorescent signal due to the cell accumulation of Calcein-AM (see Feng, B., et al., 2008; Drug Metab. Dispos. 36, 268-275).

[3] = biological target: T1, P-gp; assay: Inhibition of the transport of Calcein-AM on MDCK cell lines overexpressing MDR proteins (P-gp); type: cell-based; set-up: expressed in transfected cells; host or cells: MDCK; conditions: MDCK cells overexpressing P-gp
Protocol: as §1, §2, §3

T2 sequence (P33527 whole entry): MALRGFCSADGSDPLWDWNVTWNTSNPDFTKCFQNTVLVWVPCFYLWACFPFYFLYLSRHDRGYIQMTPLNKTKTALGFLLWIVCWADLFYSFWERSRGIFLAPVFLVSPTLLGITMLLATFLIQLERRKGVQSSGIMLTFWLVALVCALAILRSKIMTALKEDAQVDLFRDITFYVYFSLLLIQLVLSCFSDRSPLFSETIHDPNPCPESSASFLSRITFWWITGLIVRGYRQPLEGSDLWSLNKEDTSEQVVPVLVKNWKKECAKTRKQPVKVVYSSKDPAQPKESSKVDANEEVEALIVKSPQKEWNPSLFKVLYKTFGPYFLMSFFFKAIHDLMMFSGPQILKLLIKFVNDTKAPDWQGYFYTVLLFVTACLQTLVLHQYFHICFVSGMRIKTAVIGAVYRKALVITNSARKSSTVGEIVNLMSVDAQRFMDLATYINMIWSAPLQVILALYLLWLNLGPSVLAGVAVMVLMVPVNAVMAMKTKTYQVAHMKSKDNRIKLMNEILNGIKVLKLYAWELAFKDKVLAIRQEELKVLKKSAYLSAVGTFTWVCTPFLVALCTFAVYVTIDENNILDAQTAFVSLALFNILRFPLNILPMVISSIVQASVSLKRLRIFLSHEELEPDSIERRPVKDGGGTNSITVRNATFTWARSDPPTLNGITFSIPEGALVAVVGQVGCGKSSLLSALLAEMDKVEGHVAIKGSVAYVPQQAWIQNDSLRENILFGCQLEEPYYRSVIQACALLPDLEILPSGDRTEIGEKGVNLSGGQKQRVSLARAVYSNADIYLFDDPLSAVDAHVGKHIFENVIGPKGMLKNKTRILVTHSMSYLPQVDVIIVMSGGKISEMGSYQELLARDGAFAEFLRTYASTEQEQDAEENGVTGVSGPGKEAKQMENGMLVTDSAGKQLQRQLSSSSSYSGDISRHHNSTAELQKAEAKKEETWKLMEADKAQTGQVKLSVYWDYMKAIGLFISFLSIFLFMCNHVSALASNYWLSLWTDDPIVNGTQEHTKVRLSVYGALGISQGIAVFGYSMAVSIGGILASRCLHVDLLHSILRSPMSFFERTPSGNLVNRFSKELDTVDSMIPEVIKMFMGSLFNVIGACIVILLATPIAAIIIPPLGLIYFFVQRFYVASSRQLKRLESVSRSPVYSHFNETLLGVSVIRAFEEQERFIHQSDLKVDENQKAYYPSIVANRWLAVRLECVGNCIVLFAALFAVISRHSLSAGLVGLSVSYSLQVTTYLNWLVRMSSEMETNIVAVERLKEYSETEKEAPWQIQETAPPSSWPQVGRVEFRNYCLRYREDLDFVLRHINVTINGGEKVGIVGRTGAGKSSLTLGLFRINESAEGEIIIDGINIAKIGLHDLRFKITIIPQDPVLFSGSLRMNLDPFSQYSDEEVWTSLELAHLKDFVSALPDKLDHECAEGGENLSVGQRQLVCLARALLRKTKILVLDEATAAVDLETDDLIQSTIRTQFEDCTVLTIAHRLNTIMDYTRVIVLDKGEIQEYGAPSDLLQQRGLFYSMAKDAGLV
T1 sequence (P08183 whole entry): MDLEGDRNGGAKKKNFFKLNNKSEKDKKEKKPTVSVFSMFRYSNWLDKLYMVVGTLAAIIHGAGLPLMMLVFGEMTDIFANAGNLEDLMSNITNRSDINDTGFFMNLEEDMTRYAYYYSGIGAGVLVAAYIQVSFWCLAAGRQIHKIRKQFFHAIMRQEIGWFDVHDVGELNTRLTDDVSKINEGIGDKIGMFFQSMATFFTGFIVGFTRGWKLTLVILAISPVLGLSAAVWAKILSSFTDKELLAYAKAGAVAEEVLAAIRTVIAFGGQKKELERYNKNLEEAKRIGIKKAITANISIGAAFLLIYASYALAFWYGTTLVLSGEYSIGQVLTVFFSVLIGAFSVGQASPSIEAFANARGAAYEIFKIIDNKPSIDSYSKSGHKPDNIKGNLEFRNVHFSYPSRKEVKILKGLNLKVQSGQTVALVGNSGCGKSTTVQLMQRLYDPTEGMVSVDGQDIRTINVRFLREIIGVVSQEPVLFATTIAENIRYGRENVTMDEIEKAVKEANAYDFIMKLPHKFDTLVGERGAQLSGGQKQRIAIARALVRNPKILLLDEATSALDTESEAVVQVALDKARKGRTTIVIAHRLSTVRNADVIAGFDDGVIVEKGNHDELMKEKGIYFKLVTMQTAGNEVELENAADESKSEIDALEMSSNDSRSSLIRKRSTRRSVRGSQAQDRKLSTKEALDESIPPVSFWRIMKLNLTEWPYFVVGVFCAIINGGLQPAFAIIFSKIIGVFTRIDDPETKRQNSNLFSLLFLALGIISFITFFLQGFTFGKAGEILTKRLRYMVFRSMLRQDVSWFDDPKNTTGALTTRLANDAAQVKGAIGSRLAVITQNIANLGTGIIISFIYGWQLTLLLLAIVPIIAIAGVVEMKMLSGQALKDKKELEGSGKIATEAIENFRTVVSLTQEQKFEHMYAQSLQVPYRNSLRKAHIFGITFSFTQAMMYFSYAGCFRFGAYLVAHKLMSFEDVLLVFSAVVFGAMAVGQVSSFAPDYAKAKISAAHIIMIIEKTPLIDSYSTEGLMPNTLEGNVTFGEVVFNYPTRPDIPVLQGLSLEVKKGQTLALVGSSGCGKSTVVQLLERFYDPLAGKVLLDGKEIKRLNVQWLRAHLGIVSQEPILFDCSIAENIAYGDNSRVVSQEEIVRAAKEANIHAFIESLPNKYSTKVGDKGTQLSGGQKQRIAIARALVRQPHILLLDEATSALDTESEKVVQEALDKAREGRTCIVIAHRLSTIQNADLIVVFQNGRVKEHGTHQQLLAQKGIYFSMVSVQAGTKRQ

Row | Compound | efflux ratio [1] | EC50 [2] | EC50 [3] | activity towards MRP1 (in words) [2]
1 | COc1cc2c(cc1OC)CN(Cc1csc(-c3ccc4cc(Br)ccc4c3)n1)CC2 [R2 = H, R1 = Br, X = S, (2-((2-(2-Bromonaftalen-6-il)thiazol-4-il)metil)-1,2,3,4-tetraidro-6,7-dimetossiisochinolina] | 6 | > 100 µM | 3.7 µM | –
2 | COc1cc2c(cc1OC)CN(Cc1coc(-c3ccc4cc(F)ccc4c3)n1)CC2 [R2 = H, R1 = F, X = O, 2-((2-(2-fluoronaphthalen-6-yl)oxazol-4-yl)methyl)-1,2,3,4-tetrahydro-6,7-dimethoxyisoquinoline] | 0.8 | 31.8 µM | 5.2 µM | –
3 | COc1cc2c(cc1OC)CN(Cc1coc(-c3ccc4ccccc4c3)n1)CC2 [R2 = H, R1 = H, X = O, 1,2,3,4-tetrahydro-6,7-dimethoxy-2-((2-(naphthalen-6-yl)oxazol-4-yl)methyl)isoquinoline] | 0.4 | 33.2 µM | 2.7 µM | –

Other lines, results leading:

Row | efflux ratio [1] | EC50 [2] | EC50 [3] | activity towards MRP1 (in words) [2] | Compound
4 | 6 | > 100 µM | 1 µM | – | COc1ccc2cc(-c3nc(CN4CCc5cc(OC)c(OC)cc5C4)cs3)ccc2c1 [R2 = H, R1 = OCH3, X = S, 1,2,3,4-tetrahydro-6,7-dimethoxy-2-((2-(2-methoxynaphthalen-6-yl)thiazol-4-yl)methyl)isoquinoline]
5 | 1.6 | > 100 µM | 2.8 µM | inactive | COc1cc2c(cc1OC)CN(Cc1coc(-c3ccc4cc(O)ccc4c3)n1)CC2 [R2 = H, R1 = OH, X = O, 2-((2-(2-hydroxynaphthalen-6-yl)oxazol-4-yl)methyl)-1,2,3,4-tetrahydro-6,7-dimethoxyisoquinoline]
